Results: the supplement of paper PMC6045584
± gives the standard deviation of the averaged measurements.

What was measured:
[1] = compound: T1, CN(C)C/C=C/C(=O)Nc1cc2c(Nc3ccc(F)c(Cl)c3)ncnc2cc1O[C@H]1CCOC1 [AFATINIB]; assay: area under dose-response curve of surviving fraction (unscaled, Aref=0) (surviving fraction x log10(nM)); higher = more resistant; details: exposure time: 5 days; dose range 0.5-1000 nM
In short: (§1)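 Three screens per tumour cell line were run in 384-well plates at eight inhibitor concentrations from 0.5 to 1000 nM over five days. Surviving fractions, from CellTiter-Glo luminescence normalised to DMSO-only wells, were fitted with 3-parameter logistic curves in the drc R package. The reported area under the curve is the unscaled activity area. It spans log10 dose, and Aref is 0.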

[2] = compound: T2, CCCCCCCCCCCCCCCC(=O)Nc1ccn([C@@H]2O[C@H](CO)[C@@H](O)[C@@H]2C#N)c(=O)n1 [SAPACITABINE]; assay: as above; details: exposure time: 5 days; dose range 0.5-1000 nM
In short: as §1

[3] = compound: Cn1cc(C2=Nc3cc(NC(=O)C(N)C4CCCCC4)cc4c3C2=CNNC4=O)cn1; assay: as above; details: exposure time: 5 days; dose range 0.5-1000 nM
In short: as §1

[4] = compound: T3, C=CC(=O)Nc1cc2c(Nc3ccc(F)c(Cl)c3)ncnc2cc1OCCCN1CCOCC1 [CANERTINIB]; assay: as above; details: exposure time: 5 days; dose range 0.5-1000 nM
In short: as §1

[5] = compound: T4, CNC(=O)c1ccc(N2C(=S)N(c3ccc(C#N)c(C(F)(F)F)c3)C(=O)C2(C)C)cc1F [MDV3100]; assay: as above; details: exposure time: 5 days; dose range 0.5-1000 nM
In short: as §1

[6] = compound: T5, CC[C@@H]1C(=O)N(C)c2cnc(Nc3ccc(C(=O)NC4CCN(C)CC4)cc3OC)nc2N1C1CCCC1 [BI-2536]; assay: as above; details: exposure time: 5 days; dose range 0.5-1000 nM
In short: as §1

[7] = compound: T6, Nc1nc2[nH]cnc2c(=S)[nH]1 [TIOGUANINE]; assay: as above; details: exposure time: 5 days; dose range 0.5-1000 nM
In short: as §1

[8] = compound: T7, CC1(C)CC(=O)c2c(C(F)(F)F)nn(-c3ccc(C(N)=O)c(N[C@H]4CC[C@H](OC(=O)CN)CC4)c3)c2C1 [SNX-5422]; assay: as above; details: exposure time: 5 days; dose range 0.5-1000 nM
In short: as §1

[9] = compound: T1, AFATINIB; assay: surviving fraction relative to DMSO-only wells; higher = less growth inhibition; details: exposure time: 5 days
In short: (§2)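 Viability was scored with CellTiter-Glo luminescence and normalised to the median of DMSO-only wells as surviving fraction. Beforehand, log-phase tumour cell lines were seeded at 250–500 cells per well in 384-well plates, allowed 24 hours, and exposed continuously for five days to inhibitors at 0.5, 1, 5, 10, 50, 100, 500 and 1000 nM. Only lines whose three screens gave replicate Pearson r >0.7 and median Z' >0.3 were kept.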

[10] = compound: T2, SAPACITABINE; assay: as above; details: exposure time: 5 days
In short: as §2

[11] = compound: Cn1cc(C2=Nc3cc(NC(=O)C(N)C4CCCCC4)cc4c3C2=CNNC4=O)cn1; assay: as above; details: exposure time: 5 days
In short: as §2

[12] = compound: T3, CANERTINIB; assay: as above; details: exposure time: 5 days
In short: as §2

[13] = compound: T4, MDV3100; assay: as above; details: exposure time: 5 days
In short: as §2

[14] = compound: T5, BI-2536; assay: as above; details: exposure time: 5 days
In short: as §2

[15] = compound: T6, TIOGUANINE; assay: as above; details: exposure time: 5 days
In short: as §2

[16] = compound: T7, SNX-5422; assay: as above; details: exposure time: 5 days
In short: as §2

Test System: CADOES1 SOFT TISSUE
- area under dose-response curve [1]: 2.94
- area under dose-response curve [2]: 1.99
- area under dose-response curve [3]: 3.08
- area under dose-response curve [4]: 3
- area under dose-response curve [5]: 2.95
- area under dose-response curve [6]: 1.66
- area under dose-response curve [7]: 3.12
- area under dose-response curve [8]: 1.95
- surviving fraction ([9]; 0.5 nM): 0.833 ± 0.033
- surviving fraction ([9]; 1 nM): 0.909 ± 0.063
- surviving fraction ([9]; 5 nM): 0.914 ± 0.0056
- surviving fraction ([9]; 10 nM): 0.98 ± 0.011
- surviving fraction ([9]; 50 nM): 0.837 ± 0.018
- surviving fraction ([9]; 100 nM): 0.997 ± 0.024
- surviving fraction ([9]; 500 nM): 0.931 ± 0.11
- surviving fraction ([9]; 1000 nM): 0.724 ± 0.051
- surviving fraction ([10]; 0.5 nM): 1.04 ± 0.053
- surviving fraction ([10]; 1 nM): 1.03 ± 0.022
- surviving fraction ([10]; 5 nM): 0.915 ± 0.11
- surviving fraction ([10]; 10 nM): 0.857 ± 0.074
- surviving fraction ([10]; 50 nM): 0.553 ± 0.075
- surviving fraction ([10]; 100 nM): 0.209 ± 0.066
- surviving fraction ([10]; 500 nM): 0.0497 ± 0.0072
- surviving fraction ([10]; 1000 nM): 0.0437 ± 0.0035
- surviving fraction ([11]; 0.5 nM): 0.973 ± 0.13
- surviving fraction ([11]; 1 nM): 0.933 ± 0.073
- surviving fraction ([11]; 5 nM): 0.868 ± 0.011
- surviving fraction ([11]; 10 nM): 0.905 ± 0.051
- surviving fraction ([11]; 50 nM): 0.88 ± 0.071
- surviving fraction ([11]; 100 nM): 0.988 ± 0.13
- surviving fraction ([11]; 500 nM): 0.798 ± 0.068
- surviving fraction ([11]; 1000 nM): 0.558 ± 0.027
- surviving fraction ([12]; 0.5 nM): 1 ± 0.13
- surviving fraction ([12]; 1 nM): 0.945 ± 0.049
- surviving fraction ([12]; 5 nM): 0.945 ± 0.038
- surviving fraction ([12]; 10 nM): 0.93 ± 0.075
- surviving fraction ([12]; 50 nM): 0.918 ± 0.17
- surviving fraction ([12]; 100 nM): 0.926 ± 0.029
- surviving fraction ([12]; 500 nM): 0.738 ± 0.12
- surviving fraction ([12]; 1000 nM): 0.595 ± 0.035
- surviving fraction ([13]; 0.5 nM): 0.925 ± 0.1
- surviving fraction ([13]; 1 nM): 0.911 ± 0.12
- surviving fraction ([13]; 5 nM): 0.777 ± 0.092
- surviving fraction ([13]; 10 nM): 0.848 ± 0.07
- surviving fraction ([13]; 50 nM): 0.871 ± 0.087
- surviving fraction ([13]; 100 nM): 0.899 ± 0.093
- surviving fraction ([13]; 500 nM): 0.955 ± 0.068
- surviving fraction ([13]; 1000 nM): 1.05 ± 0.02
- surviving fraction ([14]; 0.5 nM): 1.04 ± 0.059
- surviving fraction ([14]; 1 nM): 0.939 ± 0.059
- surviving fraction ([14]; 5 nM): 0.872 ± 0.093
- surviving fraction ([14]; 10 nM): 0.792 ± 0.12
- surviving fraction ([14]; 50 nM): 0.193 ± 0.025
- surviving fraction ([14]; 100 nM): 0.0877 ± 0.018
- surviving fraction ([14]; 500 nM): 0.0517 ± 0.016
- surviving fraction ([14]; 1000 nM): 0.0513 ± 0.0051
- surviving fraction ([15]; 0.5 nM): 0.965 ± 0.12
- surviving fraction ([15]; 1 nM): 0.922 ± 0.059
- surviving fraction ([15]; 5 nM): 0.93 ± 0.067
- surviving fraction ([15]; 10 nM): 0.955 ± 0.045
- surviving fraction ([15]; 50 nM): 0.989 ± 0.15
- surviving fraction ([15]; 100 nM): 0.952 ± 0.097
- surviving fraction ([15]; 500 nM): 0.842 ± 0.095
- surviving fraction ([15]; 1000 nM): 0.78 ± 0.048
- surviving fraction ([16]; 0.5 nM): 0.975 ± 0.13
- surviving fraction ([16]; 1 nM): 0.967 ± 0.089
- surviving fraction ([16]; 5 nM): 1.07 ± 0.04
- surviving fraction ([16]; 10 nM): 0.943 ± 0.11
- surviving fraction ([16]; 50 nM): 0.365 ± 0.064
- surviving fraction ([16]; 100 nM): 0.122 ± 0.02
- surviving fraction ([16]; 500 nM): 0.061 ± 0.0056
- surviving fraction ([16]; 1000 nM): 0.0547 ± 0.00058
